Here are results for five compounds from patent US9481648B2, “Kinase inhibitors” (Respivert Limited, priority 2013, dated 2016).

Where two headings read alike, the source gives them in different places.

In series [1] the target is GSK 3α (Homo sapiens (Human), UniProt P49840). Put plainly: GSK 3α enzyme inhibition (FRET, Z-LYTE; Method 2). The following applies: read-out: IC50 Values for Enzyme Inhibition GSK3α. It is filed as biochemical. The method in brief:
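Phosphorylation was taken from the donor (coumarin) to acceptor (fluorescein) emission ratio after 1 h protease development, which cleaves only unphosphorylated peptide. Before that, peptide (8 μM stock) plus ATP (40 μM stock) reacted 1 h. This followed a 105 min RT preincubation of GSK3-α with compound stocks of 10–0.01 μg/mL.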

A short description of series [2]: Human hepatocyte stability test. The class given is in vitro ADME. Conditions: human hepatocytes; for hepatocyte CLint: read-out: Mean intrinsic clearance. Here is the method: (§1) Assessment of certain in vitro ADME (absorption, distribution, metabolism, and excretion) parameters for certain compounds of the invention was conducted by BioFocus (Saffron Walden, UK).

Series [3] has as its target B-Raf (Homo sapiens (Human), UniProt P15056). The series can be described thus: KINOMEscan binding of kinase to its standard ligand. Here is the method:
(§2) Kinase enzyme binding activities of compounds disclosed herein may be determined using a proprietary assay which measures active site-directed competition binding to an immobilized ligand (Fabian, M. A. et al., Nature Biotechnol., 2005, 23:329-336). These assays may be conducted by DiscoverX (formerly Ambit; San Diego, Calif.). The percentage inhibition produced by incubation with a test compound may be calculated relative to the non-inhibited control.

Series [4] concerns the target B-Raf (V600E) (Homo sapiens (Human), UniProt P15056, V600E). The description is as above. Here is the method: as §2
For series [5], the target named is T1, Syk (Homo sapiens (Human), UniProt P43405). Put plainly: KINOMEscan enzyme binding assay (dissociation constant). The procedure: as §2
Series [6] has as its target Lck (Homo sapiens (Human), UniProt P06239). The description is as above. The procedure:
as §2

Series [7] concerns the target p38 MAPKα (Homo sapiens (Human), UniProt Q16539). The series is described as above. The procedure:
as §2

Series [8] concerns the target T1, Syk. The series can be described thus: Syk enzyme inhibition (FRET, Z-LYTE). It is filed as biochemical. The method in brief: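 Syk or c-Src enzyme (3000 or 2000 ng/mL solutions) was preincubated 2 h at RT with compound solutions at 1, 0.1, 0.01 or 0.001 µg/mL. Z-LYTE FRET peptide (8 µM solution) and ATP (800 µM solution for c-Src, 60 µM for Syk) were then added for 1 h, followed by protease development for 1 h. Phosphorylation was read as the coumarin/fluorescein emission ratio.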

Series [9] addresses human ether a go-go (hERG) channel (Homo sapiens (Human), UniProt Q12809). The series can be described thus: hERG inhibition (IonWorks patch clamp electrophysiology). It is filed as cell-based. The following applies: IonWorks patch clamp. The procedure: (§3) Compounds of the invention were tested for inhibition of the human ether a go-go (hERG) channel using IonWorks™ patch clamp electrophysiology at Essen Bioscience (Welwyn Garden City, England).

The target of series [10] is hERG channel (Homo sapiens (Human), UniProt Q12809). The series is described as above. It is filed as cell-based. Conditions: human, 3 μM. The procedure:
as §3

For series [11], the target named is CYP2C9 (Homo sapiens (Human), UniProt P11712). The series can be described thus: CYP2C9 inhibition study. The class given is in vitro ADME. Conditions: for inhibition at 15 µM: human, read-out: 15 μM % Inh. Here is the method: as §1
Series [12] relates to endotoxin (LPS)-induced uveitis in Lewis rats. The series can be described thus: Endotoxin-induced uveitis in rats (in vivo vi). Set-up: species or system rat. Conditions: for IL-1β Anterior / IL-1β Posterior / IL-6 Anterior / IL-6 Posterior / MCP-1 Anterior / MCP-1 Posterior: eyes of LPS-stimulated rats, 1 mg/mL; for cytokine levels in both the anterior and posterior segments of the eyes: rats treated with intravitreal endotoxin LPS, topical dosing. Here is the method: Male, Lewis rats (6-8 weeks old, Charles River UK Limited) are housed in cages of 3 at 19-21° C. with a 12 h light/dark cycle (07:00/19:00) and fed a standard diet of rodent chow and water ad libitum. Non-fasted rats are weighed, individually identified on the tail with a permanent marker, and receive a single intravitreal administration into the right vitreous humor (5 μL dose volume) of 100 ng/animal of LPS (Escherichia coli 0111:B4 prepared in PBS, Sigma Aldrich, UK) using a 32-gauge needle. Untreated rats are injected with PBS. […] Following euthanasia, the right eye of each animal is enucleated and dissected into front (anterior) and back (posterior) sections around the lens. Each section is weighed and homogenised in 500 μL of sterile phosphate buffered saline followed by 20 minutes centrifugation at 12000 rpm at 4° C.

Series [13] deals with intestinal mucosa biopsies from the inflamed regions of the colon of ulcerative colitis (IBD) patients. Put plainly: Human biopsy assay (assay l). The class given is cell-based. Conditions: 1 μg/mL; for cytokine (IL-1β, IL-6 and IL-8) release compared to the DMSO control: 24 hours, biopsies from ulcerative colitis patients; for Cytokine release from biopsies of UC patients: IL-1β release / Cytokine release from biopsies of UC patients: IL-6 release / Cytokine release from biopsies of UC patients: IL-8 release: 24 hr, relative to DMSO control = 100%. The procedure:
Intestinal mucosa biopsies are obtained from the inflamed regions of the colons of IBD patients. The biopsy material is cut into small pieces (2-3 mm) and placed on steel grids in an organ culture chamber at 37° C. in a 5% CO2/95% O2 atmosphere in serum-free media. DMSO control or test compounds at the desired concentration are added to the tissue and incubated for 24 hr in the organ culture chamber. The supernatant is harvested for determination of IL-6, IL-8, IL-1β and TNFα levels by R&D ELISA.

Sequence of p38 MAPKα (Q16539 whole entry): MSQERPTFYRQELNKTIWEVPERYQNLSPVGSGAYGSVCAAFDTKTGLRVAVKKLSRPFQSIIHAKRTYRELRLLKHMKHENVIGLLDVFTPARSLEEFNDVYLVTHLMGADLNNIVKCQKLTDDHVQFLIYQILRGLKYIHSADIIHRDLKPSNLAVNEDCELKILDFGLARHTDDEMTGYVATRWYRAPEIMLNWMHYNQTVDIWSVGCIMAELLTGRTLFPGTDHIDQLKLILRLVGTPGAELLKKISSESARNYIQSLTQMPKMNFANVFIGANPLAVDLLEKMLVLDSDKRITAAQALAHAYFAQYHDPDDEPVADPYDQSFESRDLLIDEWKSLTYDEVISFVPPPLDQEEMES
Sequence of Lck (P06239 whole entry): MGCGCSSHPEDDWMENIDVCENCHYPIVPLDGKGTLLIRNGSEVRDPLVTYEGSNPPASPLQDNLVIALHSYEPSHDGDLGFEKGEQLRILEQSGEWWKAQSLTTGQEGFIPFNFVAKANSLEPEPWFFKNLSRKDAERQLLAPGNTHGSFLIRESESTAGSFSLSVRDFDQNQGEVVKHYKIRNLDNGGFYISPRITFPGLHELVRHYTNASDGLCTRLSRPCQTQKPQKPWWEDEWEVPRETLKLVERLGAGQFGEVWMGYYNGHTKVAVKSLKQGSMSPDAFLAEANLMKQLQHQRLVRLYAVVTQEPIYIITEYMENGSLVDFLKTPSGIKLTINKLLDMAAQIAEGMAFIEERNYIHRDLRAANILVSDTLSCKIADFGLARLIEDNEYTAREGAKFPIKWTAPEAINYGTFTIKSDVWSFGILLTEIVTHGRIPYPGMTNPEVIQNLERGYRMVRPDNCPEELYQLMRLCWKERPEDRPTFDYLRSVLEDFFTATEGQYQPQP
Sequence of B-Raf (P15056 whole entry): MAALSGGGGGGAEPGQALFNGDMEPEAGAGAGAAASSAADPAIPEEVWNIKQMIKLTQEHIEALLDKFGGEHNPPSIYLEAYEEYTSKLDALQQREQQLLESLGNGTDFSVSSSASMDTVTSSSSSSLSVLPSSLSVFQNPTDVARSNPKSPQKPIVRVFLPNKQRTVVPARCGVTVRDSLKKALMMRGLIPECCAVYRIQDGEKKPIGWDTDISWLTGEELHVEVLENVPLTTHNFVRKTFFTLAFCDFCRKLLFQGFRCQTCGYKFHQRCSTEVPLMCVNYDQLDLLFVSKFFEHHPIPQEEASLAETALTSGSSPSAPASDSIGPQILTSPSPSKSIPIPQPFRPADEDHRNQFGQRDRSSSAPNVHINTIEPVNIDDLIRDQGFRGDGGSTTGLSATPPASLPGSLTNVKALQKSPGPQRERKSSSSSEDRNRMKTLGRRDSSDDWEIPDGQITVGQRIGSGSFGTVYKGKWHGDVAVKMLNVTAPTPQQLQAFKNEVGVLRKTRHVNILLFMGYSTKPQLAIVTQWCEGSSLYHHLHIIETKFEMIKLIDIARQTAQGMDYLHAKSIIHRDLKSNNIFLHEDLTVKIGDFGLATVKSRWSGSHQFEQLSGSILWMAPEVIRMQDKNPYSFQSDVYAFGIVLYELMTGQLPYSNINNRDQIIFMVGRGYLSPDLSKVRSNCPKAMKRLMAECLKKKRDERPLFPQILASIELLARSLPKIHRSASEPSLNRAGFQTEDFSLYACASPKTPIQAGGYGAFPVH
Sequence of B-Raf (V600E) (P15056 whole entry V600E): as the sequence (P15056 whole entry) above, with V600E counted along it
Sequence of GSK 3α (P49840 whole entry): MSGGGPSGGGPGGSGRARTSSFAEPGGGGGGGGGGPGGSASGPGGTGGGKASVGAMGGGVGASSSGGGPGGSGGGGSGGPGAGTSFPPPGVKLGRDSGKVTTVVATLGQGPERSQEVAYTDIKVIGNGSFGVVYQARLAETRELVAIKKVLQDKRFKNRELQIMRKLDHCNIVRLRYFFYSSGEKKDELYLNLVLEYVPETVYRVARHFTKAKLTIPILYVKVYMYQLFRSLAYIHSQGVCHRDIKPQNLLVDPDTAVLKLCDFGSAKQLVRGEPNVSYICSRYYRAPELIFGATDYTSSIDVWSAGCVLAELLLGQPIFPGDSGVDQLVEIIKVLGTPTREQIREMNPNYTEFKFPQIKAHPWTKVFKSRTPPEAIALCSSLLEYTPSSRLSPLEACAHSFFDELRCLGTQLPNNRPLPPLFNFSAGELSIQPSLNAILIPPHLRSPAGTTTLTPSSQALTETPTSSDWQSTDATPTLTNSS
Sequence of human ether a go-go (hERG) channel (Q12809 whole entry): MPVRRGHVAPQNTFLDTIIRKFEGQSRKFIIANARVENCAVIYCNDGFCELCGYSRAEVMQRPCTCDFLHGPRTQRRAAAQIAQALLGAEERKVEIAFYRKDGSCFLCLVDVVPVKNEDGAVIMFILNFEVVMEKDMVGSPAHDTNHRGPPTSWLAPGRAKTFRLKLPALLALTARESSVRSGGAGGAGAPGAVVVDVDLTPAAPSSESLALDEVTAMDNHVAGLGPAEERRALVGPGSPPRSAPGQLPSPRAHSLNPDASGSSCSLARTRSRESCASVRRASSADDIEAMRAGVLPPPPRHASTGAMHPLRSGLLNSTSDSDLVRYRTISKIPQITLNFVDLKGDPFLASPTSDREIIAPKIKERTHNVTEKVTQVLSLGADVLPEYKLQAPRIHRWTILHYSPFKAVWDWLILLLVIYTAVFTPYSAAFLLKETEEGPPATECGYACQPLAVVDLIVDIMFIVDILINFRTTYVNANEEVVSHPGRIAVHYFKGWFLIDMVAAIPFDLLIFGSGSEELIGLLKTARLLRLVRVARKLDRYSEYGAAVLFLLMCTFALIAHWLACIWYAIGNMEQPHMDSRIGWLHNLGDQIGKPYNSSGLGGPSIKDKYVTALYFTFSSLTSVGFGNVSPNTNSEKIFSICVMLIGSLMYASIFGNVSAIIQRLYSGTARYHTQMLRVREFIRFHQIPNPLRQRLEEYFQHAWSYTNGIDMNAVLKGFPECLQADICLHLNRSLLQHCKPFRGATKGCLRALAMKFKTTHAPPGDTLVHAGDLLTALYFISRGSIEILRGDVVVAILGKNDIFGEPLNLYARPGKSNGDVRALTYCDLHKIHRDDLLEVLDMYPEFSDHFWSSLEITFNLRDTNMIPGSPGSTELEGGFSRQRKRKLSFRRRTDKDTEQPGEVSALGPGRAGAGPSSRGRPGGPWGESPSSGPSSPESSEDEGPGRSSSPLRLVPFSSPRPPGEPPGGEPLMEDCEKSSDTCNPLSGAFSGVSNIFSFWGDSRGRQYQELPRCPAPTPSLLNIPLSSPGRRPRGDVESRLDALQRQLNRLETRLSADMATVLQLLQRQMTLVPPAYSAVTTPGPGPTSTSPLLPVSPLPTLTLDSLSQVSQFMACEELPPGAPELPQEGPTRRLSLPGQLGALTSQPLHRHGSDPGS
Sequence of hERG channel (Q12809 whole entry): as above
Sequence of CYP2C9 (P11712 whole entry): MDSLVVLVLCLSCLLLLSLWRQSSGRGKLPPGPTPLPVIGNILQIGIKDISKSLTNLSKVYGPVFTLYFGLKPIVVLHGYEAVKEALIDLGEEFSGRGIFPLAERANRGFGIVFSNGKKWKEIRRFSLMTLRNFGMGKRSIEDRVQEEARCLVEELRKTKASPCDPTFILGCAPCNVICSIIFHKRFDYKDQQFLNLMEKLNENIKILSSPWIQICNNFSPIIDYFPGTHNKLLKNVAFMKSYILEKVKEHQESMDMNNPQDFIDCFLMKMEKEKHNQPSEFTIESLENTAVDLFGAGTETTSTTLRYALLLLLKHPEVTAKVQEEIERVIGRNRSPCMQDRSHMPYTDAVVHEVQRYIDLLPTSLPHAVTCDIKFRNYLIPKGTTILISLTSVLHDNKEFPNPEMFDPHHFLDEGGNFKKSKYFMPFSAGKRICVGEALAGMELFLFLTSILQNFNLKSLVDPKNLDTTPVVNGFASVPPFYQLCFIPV

What is called IC50 is the concentration needed to halve the response being measured. What is called half-life is the time in which the quantity being followed falls by half. A higher half-life goes with slow loss. By Kd is commonly meant the constant that tells how readily two partners part at equilibrium. As for `COCCOCCOCCNC(=O)c1cc(Nc2cc(Oc3ccc(NC(=O)Nc4cc(C(C)(C)C)cc(NS(C)(=O)=O)c4OC)c4ccccc34)ccn2)cc(OC)c1` [Example 3, 3-((4-((4-(3-(5-(tert-Butyl)-2-methoxy-3-(methylsulfonamido)phenyl)ureido)naphthalen-1-yl)oxy)pyridin-2-yl)amino)-5-methoxy-N-(2-(2-(2-methoxyethoxy)ethoxy)ethyl)benzamide], the IC50 in series [1] was 4320 nM; in series [8], 692 nM; in [9], greater than 3000 nM. The compound further came in with a half-life in [2] of 36 min. The hepatocyte CLint in [2] amounted to 39 µL/min/1e6 cells. For the same compound, in series [3], the “effect on the binding of the kinase B-Raf to its standard ligand” value was “did not have any significant effect”. In addition, the “effect on the binding of the kinase B-Raf (V600E) to its standard ligand” value (from here on “effect … (V600E) to its standard ligand”) in series [4] was “did not have any significant effect”. The figures for the Kd in series [5], in series [6] and in series [7] were 10 nM, 2.3 nM and 6.9 nM, respectively. The inhibition at 3 µM in [10] is -2 ± 2%.
`COCCOCCOCCOc1cc(Nc2nccc(Oc3ccc(NC(=O)Nc4cc(C(C)(C)C)cc(NS(C)(=O)=O)c4OC)c4ccccc34)n2)cc(OC)c1` [Example 4, N-(5-(tert-Butyl)-2-methoxy-3-(3-(4-((2-((3-methoxy-5-(2-(2-(2-methoxyethoxy)ethoxy)-ethoxy)phenyl)amino)pyrimidin-4-yl)oxy)naphthalen-1-yl)ureido)phenyl)methanesulfonamide]: the IC50 in series [1] turned out to be 2660 nM. In addition, in series [2], the half-life came out at 48 min and the hepatocyte CLint stood at 29 µL/min/1e6 cells. In [11] (CYP2C9, 0 min preincubation), the IC50 is greater than 15000 nM and the inhibition at 15 µM came out at 24%. For the same compound, in series [11] (CYP2C9, 30 min preincubation), the IC50 was greater than 15000 nM and the inhibition at 15 µM is 41%. Moreover, the “effect on the binding of the kinase B-Raf to its standard ligand” value in series [3] is “did not have any significant effect”. For the same compound, the “effect … (V600E) to its standard ligand” value in series [4] is on record as “did not have any significant effect”. In series [5], the Kd turned out to be 14 nM. The Kd in series [6] was 3 nM. This compound also returned a Kd in [7] of 19 nM. Moreover, the IC50 in series [8] is 86 nM. Also, in series [12] (Table 7a), the “IL-1β Anterior” value is recorded as 20.3 ± 18.9 pg/mL, the “IL-1β Posterior” value came out at 7.6 ± 7.6 pg/mL, the “IL-6 Anterior” value worked out at 642.3 ± 48.9 pg/mL and the “IL-6 Posterior” value came out at 897.9 ± 120.3 pg/mL. Further, in series [12] (Table 7a), the “MCP-1 Anterior” value is 0 ± 0 pg/mL and the “MCP-1 Posterior” value is reported as 1.0 ± 1.0 pg/mL. The “cytokine levels in both the anterior and posterior segments of the eyes” value (from here on “cytokine levels”) in series [12] is “significantly reduced”. Also, the IC50 in series [9] was greater than 3000 nM. The inhibition at 3 µM in series [10] was -4 ± 2%. Moreover, in [13], the “cytokine (IL-1β, IL-6 and IL-8) release compared to the DMSO control” value (“cytokine … compared to the DMSO control” below) is given as “significantly inhibited”; the “Cytokine release from biopsies of UC patients: IL-1β release” value is 17 ± 21%; the “Cytokine release from biopsies of UC patients: IL-6 release” value is listed as 5 ± 1%; the “Cytokine release from biopsies of UC patients: IL-8 release” value was found to be 2 ± 1%.
In the case of `C#Cc1cc(Nc2nccc(Oc3ccc(NC(=O)Nc4cc(C(C)(C)C)cc(NS(C)(=O)=O)c4OC)c4ccccc34)n2)cc(C(=O)NCCOCCOCCOC)c1` [Example 16], the “effect on the binding of the kinase B-Raf to its standard ligand” value in series [3] was “did not have any significant effect”. In series [4], the “effect … (V600E) to its standard ligand” value is reported as “did not have any significant effect”. Moreover, the “cytokine … compared to the DMSO control” value in series [13] is “significantly inhibited”.
Turning to `COc1cc(Nc2cc(Oc3ccc(NC(=O)Nc4cc(C(C)(C)C)cc(NS(C)(=O)=O)c4OC)c4ccccc34)ccn2)cc(C(=O)NCCN2CCOCC2)c1` [Example 27], the IC50 in series [1] was 4500 nM. For the same compound, in [2], the half-life came out at 96 min and the hepatocyte CLint worked out at 15 µL/min/1e6 cells. For the same compound, in series [11] (CYP2C9, 0 min preincubation), the IC50 was greater than 15000 nM and the inhibition at 15 µM was found to be 13%. In series [11] (CYP2C9, 30 min preincubation), the IC50 was greater than 13000 nM and the inhibition at 15 µM was determined as 55%. For the same compound, the “effect on the binding of the kinase B-Raf to its standard ligand” value in [3] is on record as “did not have any significant effect”. Also, the “effect … (V600E) to its standard ligand” value in series [4] is listed as “did not have any significant effect”. This compound returned a Kd in [5] of 27 nM. For the same compound, in [6], the Kd came out at 4.3 nM. The Kd in [7] came to 29 nM. The IC50 in series [8] amounted to 443 nM. Also, in [12] (Table 7b), the “IL-1β Anterior” value is on record as 640 ± 263 pg/mL, the “IL-1β Posterior” value worked out at 394 ± 115 pg/mL, the “IL-6 Anterior” value was determined as 519 ± 196 pg/mL and the “IL-6 Posterior” value turned out to be 424 ± 116 pg/mL. Also, in series [12] (Table 7b), the “MCP-1 Anterior” value amounted to 282 ± 109 pg/mL and the “MCP-1 Posterior” value amounted to 352 ± 109 pg/mL. Also, the “cytokine levels” value in [12] was “significantly reduced”. Besides, the IC50 in [9] was greater than 3000 nM. Moreover, the inhibition at 3 µM in [10] was -3 ± 5%. Moreover, in series [13], the “cytokine … compared to the DMSO control” value is given as “significantly inhibited”; the “Cytokine release from biopsies of UC patients: IL-1β release” value came out at 11 ± 54%; the “Cytokine release from biopsies of UC patients: IL-6 release” value is on record as 48 ± 26%; the “Cytokine release from biopsies of UC patients: IL-8 release” value is 60 ± 15%.
For `COc1c(NC(=O)Nc2ccc(Oc3ccnc(Nc4ccccc4)c3)c3ccccc23)cc(C(C)(C)C)cc1C(=O)NC1COC1` [Example 75, 5-(tert-Butyl)-2-methoxy-N-(oxetan-3-yl)-3-(3-(4-((2-(phenylamino)pyridin-4-yl)oxy)-naphthalen-1-yl)ureido)benzamide], in series [1], the IC50 was 6030 nM. In addition, in series [2], the half-life is greater than 200 min and the hepatocyte CLint was less than 7 µL/min/1e6 cells. For the same compound, in series [11] (CYP2C9, 0 min preincubation), the IC50 was greater than 15000 nM and the inhibition at 15 µM amounted to 20%. In series [11] (CYP2C9, 30 min preincubation), the IC50 was greater than 15000 nM and the inhibition at 15 µM turned out to be 36%. For the same compound, in series [3], the “effect on the binding of the kinase B-Raf to its standard ligand” value is recorded as “did not have any significant effect”. Also, the “effect … (V600E) to its standard ligand” value in series [4] is listed as “did not have any significant effect”. Further, the Kd in series [5] was found to be 8.8 nM. Besides, the Kd in series [6] came out at 2.5 nM. Besides, the affinity in series [7], expressed as Kd, was 14 nM. Besides, in [8], the IC50 is 214 nM. In addition, in series [12] (Table 7b), the “IL-1β Anterior” value is reported as 570 ± 146 pg/mL, the “IL-1β Posterior” value was 414 ± 97 pg/mL, the “IL-6 Anterior” value came to 393 ± 118 pg/mL and the “IL-6 Posterior” value came to 489 ± 119 pg/mL. Moreover, in series [12] (Table 7b), the “MCP-1 Anterior” value worked out at 239 ± 82 pg/mL and the “MCP-1 Posterior” value amounted to 279 ± 83 pg/mL. The “cytokine levels” value in series [12] is listed as “significantly reduced”. Further, the IC50 in [9] was greater than 3000 nM. In series [10], the inhibition at 3 µM stood at 0%.
